Experimental findings from patent US20250205341A1, “PROTEIN DELIVERY COMPOSITION CONTAINING BILE SALT AND CATIONIC PEPTIDE AND USE THEREOF” (BION INC., priority 2022, published 2025) are described below.

Non-standard residues stand in square brackets, D forms with d. No end group written: not given here.

What all share (format): in vivo
Test [1] has as its system C57BL/6 mice maintaining normal blood glucose levels. Description: Insulin absorption upon oral administration (into the stomach using a zonde), blood glucose lowering. Conditions: 100 mM taurocholate + 2U/kg insulin + 0.1, 1, 10 μM SEQ6 or 1, 10, 100 μM SEQ2; FIG. 2. Here is the method: Examination was made of the change in insulin absorption upon oral administration of bile salts and/or peptides represented by SEQ ID NOS: 1 to 18. The absorption rate of insulin was indicated by measuring the blood glucose-lowering rate after insulin administration.
Specifically, C57BL/6 mice maintaining normal blood glucose levels were prepared, and blood glucose levels were measured using an Accu-Chek glucometer before administering insulin with bile salts and/or cationic peptides. Insulin, along with bile salts and/or cationic peptides, was administered directly into the stomach using a zonde, and blood glucose changes were measured over time.

Test [2] has the same test system. Nature of the test: Insulin absorption upon topical (skin) application, blood glucose change. Conditions: 50 μl on shaved skin, with mixture of taurocholate and SEQ6; FIG. 8. From the text: Examination was made of the change in insulin absorption upon topical application due to bile salts and/or peptides represented by SEQ ID NO: 1 to SEQ ID NO: 18. The absorption rate of insulin was indicated by measuring the blood glucose-lowering rate after insulin administration. Specifically, C57BL/6 mice maintaining normal blood glucose levels were shaved on the back using a depilatory cream the day before the experiment. On the day of the experiment, the mice were anesthetized by intraperitoneal injection of Ketamine/Xylazine (100 mg/kg and 10 mg/kg, respectively). After confirming stable anesthesia, blood glucose levels were measured using an Accu-Chek glucometer before administering insulin with bile salts and/or cationic peptides. A 50 μl volume of the solution was applied to the shaved skin, and blood glucose changes were measured over time.

Test [3] has the same test system. Description: Insulin absorption in sublingual mucosal tissue, blood glucose lowering after sublingual administration. Conditions: sublingual 10 μl; 100 mM taurocholate and/or 1 μM SEQ6 with 2U/kg insulin; FIG. 1. On the procedure: All cationic peptides used in the experiment were synthesized by AnyGen Co., Ltd. The absorption rate of insulin was indicated by measuring the blood glucose-lowering rate after insulin administration.
Specifically, C57BL/6 mice (Orient Bio, Korea) maintaining normal blood glucose levels were anesthetized by intraperitoneal injection of Ketamine/Xylazine (100 mg/kg and 10 mg/kg, respectively) (BK Pharm, Korea). […] Each experimental group received 10 μl of the solution administered to the sublingual mucosa, and blood glucose changes were measured over time.

Regarding RRRRRR [SEQ2], the “insulin absorption (blood glucose-lowering effect) upon oral administration” value in test [1] was “significantly increases in a dose-dependent manner”.
Take “insulin: insulin (Humulin N, Korea Lilly, Korea)”: the “blood glucose-lowering effect of insulin upon topical application” value in test [2] is reported as “excellent blood glucose-lowering effect”.
Consider “rrrrrr ([dR][dR][dR][dR][dR][dR]) [SEQ6]”, for which the “insulin absorption (blood glucose-lowering effect) upon oral administration” value in test [1] is reported as “significantly increases in a dose-dependent manner”. The “blood glucose-lowering rate by insulin (insulin absorption through sublingual mucosal tissue)” value in test [3] is “low”.
